Results reported in patent EP0068617A1, “Derivatives of clavulanic acid, a process for their preparation and their use” (BEECHAM GROUP PLC, priority 1981, dated 1983).

Experiments:
Test in all cases: MIC of amoxycillin in combination with the compound (synergy)
Type in all cases: cell-based
Conditions in all cases: amoxycillin alone
[1] = system: Staph. aureus Russell
[2] = system: Kleb. aerogenes E70
[3] = system: Escherichia coli JT39

In the case of `CC1(C)S[C@@H]2[C@H](NC(=O)[C@H](N)c3ccc(O)cc3)C(=O)N2[C@H]1C(=O)O` [Amoxycillin], the “MIC µg/ml amoxycillin” value [1] is reported as 500 µg/mL, the “MIC µg/ml amoxycillin” value [2] is reported as 1000 µg/mL and the “MIC µg/ml amoxycillin” value [3] is reported as 2000 µg/mL.
